According to patent publication US20240050428A1 (Cullgen (Shanghai), Inc., priority 2020, published 2024):
Read-outs that look alike come from different tables or passages of the source.

How the values were obtained:
MV4;11 cells = assay: Cell viability assay (CellTiter-Glo) in MV4;11 cells, alone or with gilteritinib; assay type: cell-based; conditions: Homo sapiens, MV4;11 cells, three days, CellTiter-Glo, read-out: MV4
MOLM-13 cells = assay: Cell viability assay (CellTiter-Glo) in MOLM-13 cells, alone or with gilteritinib; assay type: cell-based; conditions: Homo sapiens, MOLM-13 cells, three days, CellTiter-Glo
[1] = MV4-11, 72 h, compound alone (without gilteritinib), 11 IC50
[2] = MV4-11, 72 h, with gilteritinib 10 nM, 11 IC50 gilteritinib
[3] = MOLM-13, 72 h, compound alone (without gilteritinib), read-out: MOLM-13 IC50
[4] = MOLM-13, 72 h, with gilteritinib 20 nM, read-out: MOLM-13 IC50 gilteritinib
[5] = 72 h, compound alone (without gilteritinib), 11 IC50
[6] = 72 h, with gilteritinib 10 nM, 11 IC50 gilteritinib
[7] = 72 h, compound alone (without gilteritinib), read-out: MOLM-13 IC50
[8] = 72 h, with gilteritinib 20 nM, read-out: MOLM-13 IC50 gilteritinib

| IC50 (MV4;11 cells; [1]) [µM] | IC50 (MV4;11 cells; [2]) [µM] | IC50 (MOLM-13 cells; [3]) [µM] | IC50 (MOLM-13 cells; [4]) [µM] | SMILES | IC50 (MV4;11 cells; [5]) [µM] | IC50 (MV4;11 cells; [6]) [µM] | IC50 (MOLM-13 cells; [7]) [µM] | IC50 (MOLM-13 cells; [8]) [µM] |
| --- | --- | --- | --- | --- | --- | --- | --- | --- |
| < 0.01 | < 0.01 | < 0.01 | < 0.01 | O=C1CCC(N2C(=O)c3ccc(NCCCc4cccc(N5CCC(n6cc(-c7cnc8ccccc8n7)cn6)CC5)c4)cc3C2=O)C(=O)N1 (stereo not shown) [GS-368, 2-(2,6-Dioxopiperidin-3-yl)-5-((3-(3-(4-(4-(quinoxalin-2-yl)-1H-pyrazol-1-yl)piperidin-1-yl)phenyl)propyl)amino)isoindoline-1,3-dione] | – | – | – | – |
| > 1 | > 1 | > 1 | > 1 | O=C1CCC(N2C(=O)c3ccc(C#CCCCCn4cc(-c5cnc6ccccc6n5)cn4)cc3C2=O)C(=O)N1 (stereo not shown) [GS-369, 2-(2,6-Dioxopiperidin-3-yl)-5-(6-(4-(quinoxalin-2-yl)-1H-pyrazol-1-yl)hex-1-yn-1-yl)isoindoline-1,3-dione] | – | – | – | – |
| – | – | – | – | O=C1CCC(N2C(=O)c3ccc(NCCNc4cccc(N5CCC(c6nccs6)CC5)c4)cc3C2=O)C(=O)N1 (stereo not shown) [GS-370, 2-(2,6-Dioxopiperidin-3-yl)-5-((2-((3-(4-(thiazol-2-yl)piperidin-1-yl)phenyl)amino)ethyl)amino)isoindoline-1,3-dione] | < 0.01 | < 0.01 | < 0.01 | < 0.01 |
| > 1 | > 1 | 0.1 to 1 | 0.1 to 1 | O=C1CCC(N2C(=O)c3ccc(NCCCN4CC(n5cc(-c6cnc7ccccc7n6)cn5)C4)cc3C2=O)C(=O)N1 (stereo not shown) [GS-371, 2-(2,6-Dioxopiperidin-3-yl)-5-((3-(3-(4-(quinoxalin-2-yl)-1H-pyrazol-1-yl)azetidin-1-yl)propyl)amino)isoindoline-1,3-dione] | – | – | – | – |
| – | – | – | – | O=C1CCC(N2C(=O)c3ccc(NCCNc4cccc(N5CCN(c6ccccn6)CC5)c4)cc3C2=O)C(=O)N1 (stereo not shown) [GS-372, 2-(2,6-Dioxopiperidin-3-yl)-5-((2-((3-(4-(pyridin-2-yl)piperazin-1-yl)phenyl)amino)ethyl)amino)isoindoline-1,3-dione] | 0.01 to 0.1 | < 0.01 | < 0.01 | < 0.01 |
| – | – | – | – | O=C1CCC(N2C(=O)c3ccc(NCCNC4CC(n5cc(-c6cnc7ccccc7n6)cn5)C4)cc3C2=O)C(=O)N1 (stereo not shown) [GS-373, 2-(2,6-Dioxopiperidin-3-yl)-5-((2-((3-(4-(quinoxalin-2-yl)-1H-pyrazol-1-yl)cyclobutyl)amino)ethyl)amino)isoindoline-1,3-dione] | > 1 | > 1 | > 1 | > 1 |
| 0.1 to 1 | > 1 | > 1 | 0.1 to 1 | O=C1CCC(N2Cc3cc(CCCCCCn4cc(-c5cnc6ccccc6n5)cn4)ccc3C2=O)C(=O)N1 (stereo not shown) [GS-374, 3-(1-Oxo-5-(6-(4-(quinoxalin-2-yl)-1H-pyrazol-1-yl)hexyl)isoindolin-2-yl)piperidine-2,6-dione] | – | – | – | – |
| 0.1 to 1 | 0.01 to 0.1 | > 1 | 0.01 to 0.1 | O=C1CCC(N2Cc3cc(CCCCCCCn4cc(-c5cnc6ccccc6n5)cn4)ccc3C2=O)C(=O)N1 (stereo not shown) [GS-375, 3-(1-Oxo-5-(7-(4-(quinoxalin-2-yl)-1H-pyrazol-1-yl)heptyl)isoindolin-2-yl)piperidine-2,6-dione] | – | – | – | – |
| 0.1 to 1 | 0.01 to 0.1 | > 1 | 0.01 to 0.1 | O=C1CCC(N2C(=O)c3ccc(NCCCCCCn4cc(-c5cnc6cccc(Cl)c6n5)cn4)cc3C2=O)C(=O)N1 (stereo not shown) [GS-376, 5-((6-(4-(8-Chloroquinoxalin-2-yl)-1H-pyrazol-1-yl)hexyl)amino)-2-(2,6-dioxopiperidin-3-yl)isoindoline-1,3-dione] | – | – | – | – |
| 0.1 to 1 | 0.01 to 0.1 | > 1 | < 0.01 | O=C1CCC(N2C(=O)c3ccc(NCCCCCCn4cc(-c5cnc6cccc(F)c6n5)cn4)cc3C2=O)C(=O)N1 (stereo not shown) [GS-377, 2-(2,6-Dioxopiperidin-3-yl)-5-((6-(4-(8-fluoroquinoxalin-2-yl)-1H-pyrazol-1-yl)hexyl)amino)isoindoline-1,3-dione] | – | – | – | – |
